# Test results from patent US9757424B2, “Compositions and methods of treating gliomas” (BioMed Valley Discoveries, Inc., priority 2011, dated 2017).
# “And” between values parts separate entries of the source, which are not always exact repeats. Equal values may be shown once. Read-outs that look alike come from different tables or passages of the source.
# Key:
# [1] = test system: U87MG human glioblastomas; assay: U87MG human glioblastoma xenograft in nude mice, tumor growth inhibition Day 22 (Example 1)
# Protocol: Each test mouse received a U87MG tumor fragment of the size 1 mm^3. […] Body weight and tumor size were monitored.
# It was administered at either 5 mg/kg orally (p.o.) per day or 100 mg/kg (p.o.) per day, once daily from day 1 to day 5 of the treatment (qd×5). Candesartan in 0.5% carboxymethyl cellulose was dissolved in deionized water and administered intraperitoneally (i.p.) at the dose of 10 mg/kg once daily from day 1 to day 21 (qd×21).
# [2] = test system: U87MG glioma human tumor cell line
# Protocol: Compounds are assessed for combination efficacy in a tumor fragment xenograft model generated by serial passage of a commonly available U87MG glioma human tumor cell line. Experimental cohorts are derived by seeding 8-12 week old, female HRLN nu/nu mice with 1 mm^3 sub-fragments of tumors maintained through serial passage in living xenografts. […] Experimental compounds are dosed once daily, in a dose volume less than or equal to 10 mL/kg, in varying vehicle resuspensions and varied routes (see table 7 below). All animals are assessed periodically for body weight, as well as tumor burden using standard protocols with mechanical calipers.
# Experimental compounds are scored for efficacy using various data analyses, including manual growth curve inspection, comparison of mean time-to-tumor burden (analogous to C/T analysis), and time-to-event survival analysis by tumor burden.
# U87MG tumor fragments = assay: animal or person; settings: for Regression CR (complete regression) / Regression PR (partial regression): number of animals
# Protocol: HRLN female nu/nu mice were seeded with 1 mm^3 U87MG tumor fragments subcutaneously in the flank. Final caliper and body weight measurements were taken on the last day of the study.
# All animals were assessed periodically for body weight, as well as tumor burden, using standard protocols with mechanical calipers. […] Dosing was stopped for any group with two measurements of mean body weight loss of greater than 20%. The group was not euthanized, and recovery was allowed. Within a group with greater than 20% weight loss, individuals reaching the individual body weight loss endpoint were euthanized. If the group body weight loss was recovered, dosing may resume. […] Dosing was then resumed with the candidate agent at half the original dose. Animals were monitored as a group. The endpoint of the experiment was a mean tumor weight in control group (or group 1) of 2000 mm^3 or 60 days, whichever comes first. When the endpoint was reached, all the animals were euthanized.
# [3] = test system: U87MG human glioblastoma xenografts
# Protocol: An untreated group served as the control group for efficacy analysis. Dosing was initiated on Day 1, except where indicated otherwise, and tumors were measured twice each week until the study was ended on Day 46. Animals were monitored individually and each mouse was euthanized for endpoint when its tumor attained a volume of 2000 mm^3 (about 2 grams) or on the final day (Day 46), whichever came first.
# Treatment response was determined from an analysis of percent tumor growth delay (% TGD), defined as the percent increase in the median time to endpoint (TTE) in treated versus control mice; by logrank significance of differences in survival among treatment groups; and by regression responses. Plots of group mean tumor growth were also considered. Treatment tolerability was assessed by body weight measurements and frequent observation for clinical symptoms of treatment-related side effects.
# Xenografts were initiated with U87MG human glioblastomas maintained at Piedmont by serial subcutaneous transplantation in athymic nude mice. Each test mouse received a U87MG tumor fragment (1 mm^3) implanted subcutaneously in the right flank, and the growth of tumors was monitored as the average size approached the target range of 80 to 120 mm^3. […] Tumor volume was calculated using the formula: Tumor Volume (mm^3)=w^2×l where w=width and l=length in mm of a U87MG tumor. Tumor weight may be estimated with the assumption that 1 mg is equivalent to 1 mm^3 of tumor volume.
# On Day 1 of the study, mice were sorted into six groups each consisting of ten mice, and dosing was initiated according to the treatment plan summarized in Table 1. Group 1 mice were not treated and served as controls for calculation of % TGD. […] All doses were scaled to the body weights of the individual animals.
# Tumors were measured twice each week using calipers. Animals were monitored individually, and each mouse was euthanized when its tumor reached the endpoint size of 2000 mm^3 or at the conclusion of the study (Day 46), whichever came first.
# Animals were monitored for regression responses. Treatment may cause partial regression (PR) or complete regression (CR) of the tumor in an animal. In a PR response, the tumor volume is 50% or less of its Day 1 volume for three consecutive measurements during the course of the study, and equal to or greater than 13.5 mm^3 for one or more of these three measurements. In a CR response, the tumor volume is less than 13.5 mm^3 for three consecutive measurements during the course of the study. An animal with a CR response at the termination of a study is additionally classified as a tumor-free survivor (TFS).
# Animals were weighed daily on Days 1-5, and then twice weekly until the study was completed. […] Acceptable toxicity was defined as a group mean body-weight loss of less than 20% during the study and not more than one treatment-related (TR) death among ten treated animals. Any dosing regimen that results in greater toxicity is considered above the maximum tolerated dose (MTD). […] A death is classified as NTR if there is no evidence that death was related to treatment side effects. NTR deaths may be further characterized based on cause of death. A death may be classified as NTRa if it resulted from an accident or human error. […] A death may be classified as NTRu if the cause of death is unknown and there is no available evidence of death related to treatment side effects, metastasis, accident or human error, although death due to treatment side effects cannot be excluded.
# [4] = test system: U87MG human glioblastoma xenografts; assay: U87MG human glioblastoma xenograft, tumor growth delay, 49-day study (Example 2);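 note: female athymic nude mice with subcutaneous tumors, groups of ten, tumors measured twice weekly, endpoint at 2000 mm^3 tumor volume or Day 49, treated compared with control mice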
# Protocol: The experiment consisted of groups (n=10) of female athymic nude mice bearing subcutaneous U87MG xenografts (75-144 mm^3) on Day 1. Candesartan was evaluated as monotherapies at dosages of 1, 5, 10 and 50 mg/kg administered intraperitoneally (i.p.) on a once daily for twenty-one days (qd×21) schedule. […] Dosing was initiated on Day 1, and tumors were measured twice each week until the study was ended on Day 49. Animals were monitored individually and each mouse was euthanized for endpoint when its tumor attained a volume of 2000 mm^3 (about 2 grams) or on the final day (Day 49), whichever came first. Tumor samples were collected at endpoint, and histopathology analyses were performed.
# The time to endpoint (TTE) was calculated for each mouse. Treatment outcome was determined from percent tumor growth delay (% TGD), defined as the percent increase in median TTE of treated versus control mice, with differences in the TTE values between groups deemed statistically significant at P 0.05 using logrank survival analysis. Animals were also monitored for partial regression (PR) and complete regression (CR) responses. Treatment tolerability was assessed by body weight measurements and frequent observation for signs of treatment-related (TR) toxicity.
# Treatment response was determined from an analysis of percent tumor growth delay (% TGD), defined as the percent increase in the median time to endpoint (TTE) in treated versus control mice; by logrank significance of differences in survival among treatment groups; and by regression responses. Plots of group mean tumor growth were also considered. Treatment tolerability was assessed by body weight measurements and frequent observation for clinical symptoms of treatment-related (TR) side effects.
# Xenografts were initiated with U87MG human glioblastomas (Piedmont Research Center, Morrisville, N.C.) by serial subcutaneous transplantation in athymic nude mice. Each test mouse received a U87MG tumor fragment (1 mm^3) implanted subcutaneously in the right flank, and the growth of tumors was monitored as the average size approached the target range of 80 to 120 mm^3. […] Tumor volume was calculated using the formula: Tumor Volume (mm^3)=w^2×l/2 where w=width and l=length in mm of a U87MG tumor. Tumor weight may be estimated with the assumption that 1 mg is equivalent to 1 mm^3 of tumor volume. Therapeutic Agents
# Doses of valsartan and candesartan were each formulated weekly, and were stored at 4° C. Valsartan dosing solutions were formulated at concentrations of 15 and 3 mg/mL to yield the desired 150 and 30 mg/kg dosages, respectively, in a dosing volume of 0.2 mL per 20 grams body weight (10 mL/kg). The required amount of valsartan powder for the 15 mg/mL solution was suspended in sterile saline, then dissolved with 0.1 N NaOH and pH adjusted to 7.4 with 0.1 N HCl. The 3 mg/mL valsartan dosing solution was prepared by diluting an aliquot of the 15 mg/mL valsartan solution with sterile saline. Candesartan doses were formulated in 0.5% carboxymethyl cellulose (CMC) in deionized water at concentrations of 5, 1, 0.5 and 0.1 mg/mL to yield the desired 50, 10, 5 and 1 mg/kg dosages, respectively, in a dosing volume of 10 mL/kg.
# Each test agent was administered intraperitoneally (i.p.) once daily for twenty-one days (qd×21), unless otherwise indicated.
# Group 1 was not treated and served as the control group for calculation of % TGD. […] Groups 4-7 received candesartan at 50, 10, 5 or 1 mg/kg, respectively. […] All doses were scaled to the body weights of the individual animals.
# Tumors were measured twice each week using calipers.
# [5] = temozolomide 100 mg/kg p.o. qdx5
# [6] = Day 1, temozolomide 100 mg/kg p.o. qdx5
# [7] = Day 4, temozolomide 100 mg/kg p.o. qdx5
# [8] = Day 7, temozolomide 100 mg/kg p.o. qdx5
# [9] = Day 11, temozolomide 100 mg/kg p.o. qdx5
# [10] = Day 14, temozolomide 100 mg/kg p.o. qdx5
# [11] = Day 18, temozolomide 100 mg/kg p.o. qdx5
# [12] = Day 21, temozolomide 100 mg/kg p.o. qdx5
# [13] = Day 25, temozolomide 100 mg/kg p.o. qdx5
# [14] = Day 28, temozolomide 100 mg/kg p.o. qdx5
# [15] = temozolomide 100 mg/kg po qd x 5
# [16] = Group 1: temozolomide 5 po qd x 5 alone
# [17] = Group 1: temozolomide 5 po qd x 5 alone, n=10
# [18] = Group 19: temozolomide 100 po qd x 5 alone
# [19] = Group 19: temozolomide 100 po qd x 5 alone, n=8
# [20] = Group 2: temozolomide 5 mg/kg po qd x 5
# [21] = Group 6: temozolomide 100 mg/kg po qd x 5
# [22] = Group 2: temozolomide 100 mg/kg po qd x 5
# [23] = Group 3: temozolomide 5 mg/kg po qd x 5
smiles,measurement,setting,value
"Cn1nnc2c(C(N)=O)ncn2c1=O [Temozolomide, temozolomide]",MTV (n) Day 22 (mean tumor volume),[1]; temozolomide 5 mg/kg p.o. qdx5,825 mm^3
same,No. of CR,[1]; temozolomide 5 mg/kg p.o. qdx5,0
same,No. of NTR,[1]; temozolomide 5 mg/kg p.o. qdx5,0
same,No. of PR,[1]; temozolomide 5 mg/kg p.o. qdx5,0
same,No. of TR,[1]; temozolomide 5 mg/kg p.o. qdx5,0
same,MTV (n) Day 22 (mean tumor volume),"[1]; temozolomide 5 mg/kg p.o. qdx5, listed as temozolomide",825.1 ± 95.03 N = 115 mm^3
same,No. of CR,[1]; [5],0
same,No. of NTR,[1]; [5],0
same,No. of PR,[1]; [5],1
same,No. of TR,[1]; [5],0
same,% TGI,"[1]; temozolomide 100 mg/kg p.o. qdx5, Day 22, compared to temozolomide at 5 mg/kg",88%
same,"TV, group Mean","[2]; Day 1, temozolomide 5 mg/kg po qd x 5",111.2 mm^3
same,"TV, group Mean",[2]; [6],110.7 mm^3
same,"TV, individual mice",[2]; [6],88 mm^3 and 108 mm^3
same,"TV, group Mean","[2]; Day 4, temozolomide 5 mg/kg po qd x 5",222.2 mm^3
same,"TV, group Mean",[2]; [7],182.8 mm^3
same,"TV, individual mice",[2]; [7],144 mm^3 and 172 mm^3
same,"TV, group Mean","[2]; Day 7, temozolomide 5 mg/kg po qd x 5",439.1 mm^3
same,"TV, group Mean",[2]; [8],185 mm^3
same,"TV, individual mice",[2]; [8],144 mm^3 and 196 mm^3
same,"TV, group Mean","[2]; Day 11, temozolomide 5 mg/kg po qd x 5",599.1 mm^3
same,"TV, group Mean",[2]; [9],215.2 mm^3
same,"TV, individual mice",[2]; [9],100 mm^3 and 256 mm^3
same,"TV, group Mean","[2]; Day 14, temozolomide 5 mg/kg po qd x 5",720.4 mm^3
same,"TV, group Mean",[2]; [10],221.5 mm^3
same,"TV, individual mice",[2]; [10],144 mm^3
same,"TV, group Mean","[2]; Day 18, temozolomide 5 mg/kg po qd x 5",852.1 mm^3
same,"TV, group Mean",[2]; [11],140.6 mm^3
same,"TV, individual mice",[2]; [11],88 mm^3
same,"TV, group Mean","[2]; Day 21, temozolomide 5 mg/kg po qd x 5",1058.6 mm^3
same,"TV, group Mean",[2]; [12],99.1 mm^3
same,"TV, individual mice",[2]; [12],75 mm^3
same,"TV, group Mean","[2]; Day 25, temozolomide 5 mg/kg po qd x 5",1795.6 mm^3
same,"TV, group Mean",[2]; [13],98.4 mm^3
same,"TV, individual mice",[2]; [13],88 mm^3
same,"TV, group Mean","[2]; Day 28, temozolomide 5 mg/kg po qd x 5",1890.8 mm^3
same,"TV, group Mean",[2]; [14],95 mm^3
same,"TV, individual mice",[2]; [14],144 mm^3
same,Deaths NTR,[2]; temozolomide 5 mg/kg po qd x 5,0
same,Deaths TR,[2]; temozolomide 5 mg/kg po qd x 5,0
same,MTV (n) Day 25 (median tumor volume),[2]; temozolomide 5 mg/kg po qd x 5,1180 mm^3
same,Regressions CR,[2]; temozolomide 5 mg/kg po qd x 5,0
same,Regressions PR,[2]; temozolomide 5 mg/kg po qd x 5,0
same,Deaths NTR,[2]; [15],0
same,Deaths TR,[2]; [15],0
same,MTV (n) Day 25 (median tumor volume),[2]; [15],88 mm^3
same,Regressions CR,[2]; [15],0
same,Regressions PR,[2]; [15],0
same,% TGI,"[2]; temozolomide 100 mg/kg po qd x 5, Day 25, compared to temozolomide 5 mg/kg group",94%
same,Deaths NTR (non-treatment-related death),U87MG tumor fragments; [16],0
same,Deaths TR (treatment-related death),U87MG tumor fragments; [16],0
same,MTV(n) Day 29 (median tumor volume),U87MG tumor fragments; [16],410 (10) mm^3
same,Regression CR (complete regression),U87MG tumor fragments; [17],1
same,Regression PR (partial regression),U87MG tumor fragments; [17],0
same,Deaths NTR (non-treatment-related death),U87MG tumor fragments; [18],0
same,Deaths TR (treatment-related death),U87MG tumor fragments; [18],0
same,"Mean BW Nadir (lowest group mean body weight, as % change from Day 1)",U87MG tumor fragments; [18],−2.5%
same,MTV(n) Day 29 (median tumor volume),U87MG tumor fragments; [18],10 (8) mm^3
same,Regression CR (complete regression),U87MG tumor fragments; [19],7
same,Regression PR (partial regression),U87MG tumor fragments; [19],1
same,inhibition in vivo at 100 mg/kg,"U87MG tumor fragments; Mus musculus, U-87 MG, po, 864 h, read-out: % TGI (percent tumor growth inhibition, compared to Group 1)",98%
same,"Mean BW Nadir, day of nadir","U87MG tumor fragments; mouse, in vivo, po",Day 8
same,Median TTE,[3],42.0 days
same,% TGD (vs Group 1),[3]; [20],152%
same,Deaths NTR,[3]; [20],0
same,Deaths TR,[3]; [20],0
same,Median TTE,[3]; [20],28.7 days
same,Regressions CR,[3]; [20],0
same,Regressions PR,[3]; [20],0
same,Regressions TFS,[3]; [20],0
same,T − C (TGD vs Group 1),[3]; [20],17.3 days
same,% TGD (vs Group 1),[3]; [21],268%
same,Deaths NTR,[3]; [21],0
same,Deaths TR,[3]; [21],0
same,Median TTE,[3]; [21],42 days
same,Regressions CR,[3]; [21],1
same,Regressions PR,[3]; [21],0
same,Regressions TFS,[3]; [21],1
same,T − C (TGD vs Group 1),[3]; [21],30.6 days
same,MTV (n) Day 46 (median tumor volume),"[3]; Group 6: temozolomide 100 mg/kg po qd x 5, excludes animals attaining tumor volume endpoint",0 (1) mm3
same,% TGD (vs Group 1),[4]; [22],276%
same,Deaths NTR,[4]; [22],0
same,Deaths TR,[4]; [22],0
same,MTV (n) Day 49,[4]; [22],0 (2) mm^3
same,Median TTE,[4]; [22],43.6 days
same,Regressions CR,[4]; [22],2
same,Regressions PR,[4]; [22],3
same,Regressions TFS,[4]; [22],2
same,T − C (TGD vs Group 1),[4]; [22],32.0 days
same,% TGD (vs Group 1),[4]; [23],93%
same,Deaths NTR,[4]; [23],0
same,Deaths TR,[4]; [23],0
same,Median TTE,[4]; [23],22.4 days
same,Regressions CR,[4]; [23],0
same,Regressions PR,[4]; [23],0
same,Regressions TFS,[4]; [23],0
same,T − C (TGD vs Group 1),[4]; [23],10.8 days
